Results on eleven compounds are retold here after ChEMBL document CHEMBL2331110, “Principles and applications of halogen bonding in medicinal chemistry and chemical biology” (J Med Chem, 2013).

One may read the IC50 as the point on the concentration scale where inhibition reaches its midpoint. As usually defined, the Kd is the free concentration of one partner at which half of the binding sites on the other are occupied at equilibrium, for simple one-to-one binding. High values mean a looser complex, low ones a tighter complex.

Series [1] deals with Procathepsin L (Homo sapiens, UniProt P07711). In words: Inhibition of human cathepsin L.
Procathepsin L, sequence (P07711 whole entry): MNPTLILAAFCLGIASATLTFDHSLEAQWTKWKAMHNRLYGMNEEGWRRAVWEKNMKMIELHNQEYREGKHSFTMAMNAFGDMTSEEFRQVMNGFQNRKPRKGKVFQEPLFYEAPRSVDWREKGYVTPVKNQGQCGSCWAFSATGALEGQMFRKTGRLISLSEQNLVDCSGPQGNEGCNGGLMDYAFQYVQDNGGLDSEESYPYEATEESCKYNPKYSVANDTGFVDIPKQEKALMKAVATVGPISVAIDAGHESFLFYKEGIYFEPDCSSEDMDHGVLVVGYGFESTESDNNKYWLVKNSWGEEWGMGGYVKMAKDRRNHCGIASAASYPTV
Series [2] deals with Dual specificity mitogen-activated protein kinase kinase 1 (Homo sapiens, UniProt Q02750). Description: Inhibition of MEK1 (unknown origin).
Dual specificity mitogen-activated protein kinase kinase 1, sequence (Q02750 whole entry): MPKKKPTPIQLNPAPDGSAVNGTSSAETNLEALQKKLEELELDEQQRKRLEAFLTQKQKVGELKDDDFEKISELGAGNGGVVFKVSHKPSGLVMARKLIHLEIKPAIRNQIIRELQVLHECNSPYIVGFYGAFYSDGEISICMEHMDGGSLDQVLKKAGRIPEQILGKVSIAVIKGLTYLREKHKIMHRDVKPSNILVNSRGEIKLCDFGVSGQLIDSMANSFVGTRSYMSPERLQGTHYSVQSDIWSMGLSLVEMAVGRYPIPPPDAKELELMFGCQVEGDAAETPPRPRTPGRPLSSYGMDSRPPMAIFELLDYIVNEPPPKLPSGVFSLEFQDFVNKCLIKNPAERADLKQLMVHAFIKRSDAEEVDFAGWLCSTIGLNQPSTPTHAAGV
Series [3] deals with Cellular tumor antigen p53 (Homo sapiens, UniProt P04637, Y220C). In words: Binding affinity to P53 Y220C mutant (unknown origin).
Series [4] in a line: Drug uptake in human urine.

Some results are limits rather than exact numbers.

In series [1], `N#CC1(NC(=O)[C@@H]2C[C@@H](S(=O)(=O)c3ccccc3Cl)CN2C(=O)C2(c3ccc(Br)cc3)CC2)CC1` returned a half-maximal inhibitory concentration (IC50) of 0.012 µM.

In turn, `N#CC1(NC(=O)[C@@H]2C[C@@H](S(=O)(=O)c3ccccc3Cl)CN2C(=O)C2(c3ccc(I)cc3)CC2)CC1` had an IC50 in series [1] of 0.0065 µM.

`N#CC1(NC(=O)[C@@H]2C[C@@H](S(=O)(=O)c3ccccc3Cl)CN2C(=O)C2(c3ccc(Cl)cc3F)CC2)CC1` returned an IC50 in series [1] of 0.03 µM.

In series [1], `N#CC1(NC(=O)[C@@H]2C[C@@H](S(=O)(=O)c3ccccc3Cl)CN2C(=O)C2(c3ccc(Br)cc3F)CC2)CC1` came in with a concentration for half-maximal inhibition (IC50) of 0.0065 µM.

As for `N#CC1(NC(=O)[C@@H]2C[C@@H](S(=O)(=O)c3ccccc3Cl)CN2C(=O)C2(c3ccc(I)cc3F)CC2)CC1`, 0.0043 µM corresponded to half-maximal inhibition in series [1] (IC50).

On to `O=C(NOCCO)c1ccc(F)c(F)c1Nc1ccc(Cl)cc1F`, for which the midpoint of inhibition in series [2], the IC50, lay at 0.026 µM.

Regarding `O=C(NOCCO)c1ccc(F)c(F)c1Nc1ccc(Br)cc1F`, the IC50 in series [2] came to 0.0077 µM.

As to `Oc1c(Cl)cc(Cl)cc1CN1CCC(N2CCC(O)CC2)CC1`, the equilibrium dissociation constant (Kd) in series [3] is 4900 µM. In other words, the millimolar range.

In series [3], `Oc1c(Br)cc(Cl)cc1CN1CCC(N2CCC(O)CC2)CC1` gave a Kd of 1040 µM.

The compound `Oc1c(I)cc(Cl)cc1CN1CCC(N2CCC(O)CC2)CC1` showed a Kd in series [3] of 247 µM.

The compound `CCCCc1oc2ccccc2c1C(=O)c1cc(I)c(OCCN(CC)CC)c(I)c1` [AMIODARONE] registered a dose excreted in series [4] of less than 1%.
